In test [1] the test system is Flinders Sensitive Line (FSL) rats. The test can be described thus: forced swim test, Flinders Sensitive Line (FSL) model. Format: in vivo. The note with it: one hour after i.p. administration, vs vehicle-treated FSL rats, FIG. 3. Here is the method:
Male Flinders line rats (Flinders Sensitive Line (FSL) and their control Flinders Resistant Line (FRL); 9-11 weeks of age; 228-336 g) from the colony maintained at (TNU), Aarhus University (originally derived from the colony at the University of North Carolina, USA) were housed in pairs (Cage 1291H Eurostandard Type III H, 425×266×185 mm, Techniplast, Buguggiate, Italy) at 20±2° C. on a 12-h light/dark cycle (lights on at 07:00 am). The animals had ad libitum access to chow pellets and tap water. The animal colony was protected from outside noise, and all experimental procedures were performed in specially equipped rooms within the vivarium. […]
The following groups were included in the experiment: FRL-vehicle (n=10), FSL-vehicle (n=10), FSL-ketamine (15 mg/kg S-ketamine, Pfizer) (n=8), and FSL-compound 8 (1.5 mg/kg) (n=10). […] A camera, located directly above the center of the field, recorded the session and the total distance moved was quantified using EthoVision XT video tracking software (version 11.0.928; Noldus Information Technology, Wageningen, The Netherlands).
The rat was placed in an acrylic plastic cylinder (60 cm in height, 24 cm in diameter) containing 40 cm of water (25±1° C.) for 7 min. A camera, located directly in front of the cylinder, recorded the session. […]

Test [2] has as its target T1, human 5-HT2A (Homo sapiens (Human), UniProt P28223). The test can be described thus: cell-based. The following applies: for 5-HT2A Rmax ± S.E.M: % of the Rmax of 5-HT; for agonist response at 5-HT2A / Selectivity EC50 5-HT2C/EC50 5-HT2A: Ca2+/Fluo-4 assay; for agonist response at 5-HT2A: concentrations up to 50 μM; for Selectivity EC50 5-HT2C/EC50 5-HT2A: bounds are conservative estimates. It counts as cell-based.

The target in test [3] is T2, 5-HT2C (Homo sapiens (Human), UniProt P28335). The test can be described thus: Ca2+/Fluo-4 assay, stable h5-HT2C-HEK293 cell line.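 As to all read-outs here: Agonist-induced intracellular Ca2+ rise read by Fluo-4 fluorescence in HEK293 cells stably expressing the human 5-HT2C receptor, each compound run in duplicate on three or more occasions.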 Format: cell-based. The note with it: for EC50: agonist potency, n = 3-4.
Target sequence in this assay (P28335 whole entry, looked up): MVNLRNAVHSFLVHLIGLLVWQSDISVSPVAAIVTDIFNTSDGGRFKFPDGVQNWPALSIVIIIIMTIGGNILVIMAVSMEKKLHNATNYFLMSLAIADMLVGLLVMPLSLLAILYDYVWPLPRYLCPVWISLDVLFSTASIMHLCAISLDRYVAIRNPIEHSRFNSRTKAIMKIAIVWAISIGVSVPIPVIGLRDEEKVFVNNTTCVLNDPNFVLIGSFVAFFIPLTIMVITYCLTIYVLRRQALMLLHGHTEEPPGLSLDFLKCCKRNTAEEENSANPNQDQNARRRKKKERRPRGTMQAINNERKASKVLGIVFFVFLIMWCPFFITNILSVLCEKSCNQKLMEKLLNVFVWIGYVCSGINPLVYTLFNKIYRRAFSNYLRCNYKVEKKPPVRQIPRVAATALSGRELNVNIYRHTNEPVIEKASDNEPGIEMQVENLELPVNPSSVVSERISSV
Test [4] has as its target T3, 5-HT2B (Homo sapiens (Human), UniProt P41595). Briefly: fluorescence-based Ca2+ imaging assay (Eurofins), stable h5-HT2B cell line.
Target sequence in this assay (P41595 whole entry): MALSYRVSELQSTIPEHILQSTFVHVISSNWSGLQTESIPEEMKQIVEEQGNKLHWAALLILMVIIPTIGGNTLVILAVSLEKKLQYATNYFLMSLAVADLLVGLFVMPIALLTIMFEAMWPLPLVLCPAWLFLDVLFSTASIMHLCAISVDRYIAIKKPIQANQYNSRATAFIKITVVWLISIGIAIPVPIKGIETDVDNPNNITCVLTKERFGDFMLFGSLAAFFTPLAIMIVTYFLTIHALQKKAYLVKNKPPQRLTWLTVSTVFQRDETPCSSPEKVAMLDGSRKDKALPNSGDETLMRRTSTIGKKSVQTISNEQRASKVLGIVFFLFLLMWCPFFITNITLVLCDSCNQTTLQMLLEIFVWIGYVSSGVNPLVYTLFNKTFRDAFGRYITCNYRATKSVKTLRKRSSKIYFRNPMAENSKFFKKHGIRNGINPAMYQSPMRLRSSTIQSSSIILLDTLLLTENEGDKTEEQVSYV
Protocol: Briefly, the cell line was expanded from a freezer stock according to standard procedures. […] Cells were loaded with dye prior to testing. Media was aspirated from cells and replaced with 20 μL Dye Loading Buffer, and the cells were incubated for 30-60 minutes at 37° C. After dye loading, cells were removed from the incubator and 10 μL HBSS/20 mM HEPES was added. Cells were incubated for 30 minutes at room temperature in the dark to equilibrate plate temperature. Intermediate dilution of sample stocks was performed to generate 4× sample in assay buffer. Compound agonist activity was measured on a FLIPR Tetra (MDS). Calcium mobilization was monitored for 2 minutes and 10 μL 4× sample in HBSS/20 mM HEPES was added to the cells 5 seconds into the assay.
Test [5] deals with T1, human 5-HT2A. Briefly: cell-based. It counts as cell-based. The following applies: IP assay; for 5-HT2A Rmax: % of Rmax of 5-HT; for agonist response at 5-HT2A: concentrations up to 100 μM; for EC50: duplicate determinations.
The target of another test is 5-HT1A (Homo sapiens (Human), UniProt P08908). The test can be described thus: radioligand competition binding assay (Psychiatric Drug Screening Program). In general terms: Displacement assays read how much labelled ligand stays bound in the presence of the test substance.
In another test the target is 5-HT1D (Homo sapiens (Human), UniProt P28221). Described as above.
For the next test, the target named is 5-HT1e (Homo sapiens (Human), UniProt P28566). Described as above.
For test [6], the target named is T3, 5-HT2B. Described as above.
Target sequence in this assay (P41595 whole entry, looked up, species assumed): as the sequence (P41595 whole entry) above
In test [7] the target is T2, 5-HT2C. The test can be described thus: biochemical. It counts as binding.
For a further test, the target named is 5-HT6 (Homo sapiens (Human), UniProt P50406). The test can be described thus: radioligand competition binding assay (Psychiatric Drug Screening Program).
For another test, the target named is 5-HT7 (Homo sapiens (Human), UniProt P34969). The description is as above.
The target in another test is a1A (Homo sapiens (Human), UniProt P35348). The test is described as above.
In another test the target is a1B (Homo sapiens (Human), UniProt P35368). The test is described as above.
The next test addresses a2A (Homo sapiens (Human), UniProt P08913). The description is as above.
For another test, the target named is a2B (Homo sapiens (Human), UniProt P18089). The test is described as above.
Another test addresses a2C (Homo sapiens (Human), UniProt P18825). The test is described as above.
The target of test [8] is T3, 5-HT2B. Briefly: IP assay (Eurofins, IP1 HTRF), HEK293 cells. Format: cell-based. The note with it: for EC50: duplicate determinations, read-out: 5-HT2B EC50. (In general: In TR-FRET formats the signal depends on donor and acceptor labels being close together.)
Target sequence in this assay (P41595 whole entry, looked up): as the sequence (P41595 whole entry) above
Protocol: (§1) The agonist properties of the compounds were characterized at HEK293 cell lines expressing the human 5-HT2A, human 5-HT2B or human 5-HT2C receptors in an IP assay essentially as previously described.^19 The testing was performed by Eurofins. In the assay, the agonist activity of the compound at the receptors is investigated by measuring its effect on IP1 production in the cell using the Homogeneous Time Resolved Fluorescence (HTRF) detection method. […] Following incubation, the cells were lysed, and the fluorescence acceptor (D2-labeled IP1) and fluorescence donor (anti-IP1 antibody labeled with europium cryptate) were added. […] The test compounds were characterized in eight different concentrations in duplicate at each of the three cell lines.
Test [9] addresses T2, 5-HT2C. The test can be described thus: IP assay (Eurofins, IP1 HTRF), HEK293 cells. Format: cell-based. The following applies: IP assay; for EC50: duplicate determinations, read-out: 5-HT2C EC50.
Target sequence in this assay (P28335 whole entry, looked up): as the sequence (P28335 whole entry, looked up) above
Protocol: as §1
The next test deals with 5-HT2A over 5-HT2C. The note with it: cited from earlier work.
The next test deals with 5-HT1B (Homo sapiens (Human), UniProt P28222). Briefly: radioligand competition binding assay (Psychiatric Drug Screening Program).
Another test addresses 5-HT5A (Homo sapiens (Human), UniProt P47898). The description is as above.
The target of the next test is D1 (Homo sapiens (Human), UniProt P21728). The description is as above.
In another test the target is D2 (Homo sapiens (Human), UniProt P14416). The description is as above.
The next test concerns the target D3 (Homo sapiens (Human), UniProt P35462). Described as above.
Another test addresses D4 (Homo sapiens (Human), UniProt P21917). The test is described as above.
For another test, the target named is D5 (Homo sapiens (Human), UniProt P21918). The test is described as above.
The subject of a further test is 5-HT2A. The note with it: cited from earlier work.
For test [10], the system named is 5-HT2C. The note with it: cited from earlier work.
Test [11] concerns the target T3, 5-HT2B. The following applies: % of the Rmax of 5-HT; cited from earlier work.
Target sequence in this assay (P41595 whole entry, looked up, species assumed): as the sequence (P41595 whole entry) above
Setting [12] is: Rmax ± S.D., % of the Rmax of 5-HT.

Like-named read-outs stand apart in the source and are kept apart here.
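For 5-HT2B agonist activity (n.a./w.a.) in this document: agonist effect read as cellular IP1 production by HTRF using a europium cryptate anti-IP1 antibody donor and D2-labeled IP1 acceptor, eight compound concentrations in each cell line.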

a2A, sequence (P08913 whole entry, looked up): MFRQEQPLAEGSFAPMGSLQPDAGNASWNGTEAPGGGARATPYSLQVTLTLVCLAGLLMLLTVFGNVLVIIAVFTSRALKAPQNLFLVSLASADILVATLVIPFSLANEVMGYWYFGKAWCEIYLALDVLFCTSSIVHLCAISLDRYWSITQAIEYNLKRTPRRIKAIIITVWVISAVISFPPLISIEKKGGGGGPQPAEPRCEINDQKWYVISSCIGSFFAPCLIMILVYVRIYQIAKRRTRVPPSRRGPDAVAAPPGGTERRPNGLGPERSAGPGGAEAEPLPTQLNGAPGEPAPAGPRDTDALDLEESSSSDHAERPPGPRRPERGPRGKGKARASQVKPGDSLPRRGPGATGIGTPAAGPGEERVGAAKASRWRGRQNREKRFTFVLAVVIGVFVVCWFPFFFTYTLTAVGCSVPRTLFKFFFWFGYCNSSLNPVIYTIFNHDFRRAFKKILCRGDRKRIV
a2C, sequence (P18825 whole entry, looked up): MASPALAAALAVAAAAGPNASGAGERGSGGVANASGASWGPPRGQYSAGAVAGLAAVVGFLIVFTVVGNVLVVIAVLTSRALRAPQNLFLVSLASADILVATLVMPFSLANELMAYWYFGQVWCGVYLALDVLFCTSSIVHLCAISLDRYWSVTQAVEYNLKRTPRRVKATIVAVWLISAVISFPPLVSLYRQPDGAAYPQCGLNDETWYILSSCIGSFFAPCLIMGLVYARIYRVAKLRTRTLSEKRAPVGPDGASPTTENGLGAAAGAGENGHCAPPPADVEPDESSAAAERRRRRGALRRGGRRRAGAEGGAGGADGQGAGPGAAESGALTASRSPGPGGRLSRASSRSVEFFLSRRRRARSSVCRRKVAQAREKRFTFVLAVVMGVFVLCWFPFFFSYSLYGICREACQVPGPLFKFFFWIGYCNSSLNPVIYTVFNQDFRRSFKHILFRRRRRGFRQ
a1B, sequence (P35368 whole entry, looked up): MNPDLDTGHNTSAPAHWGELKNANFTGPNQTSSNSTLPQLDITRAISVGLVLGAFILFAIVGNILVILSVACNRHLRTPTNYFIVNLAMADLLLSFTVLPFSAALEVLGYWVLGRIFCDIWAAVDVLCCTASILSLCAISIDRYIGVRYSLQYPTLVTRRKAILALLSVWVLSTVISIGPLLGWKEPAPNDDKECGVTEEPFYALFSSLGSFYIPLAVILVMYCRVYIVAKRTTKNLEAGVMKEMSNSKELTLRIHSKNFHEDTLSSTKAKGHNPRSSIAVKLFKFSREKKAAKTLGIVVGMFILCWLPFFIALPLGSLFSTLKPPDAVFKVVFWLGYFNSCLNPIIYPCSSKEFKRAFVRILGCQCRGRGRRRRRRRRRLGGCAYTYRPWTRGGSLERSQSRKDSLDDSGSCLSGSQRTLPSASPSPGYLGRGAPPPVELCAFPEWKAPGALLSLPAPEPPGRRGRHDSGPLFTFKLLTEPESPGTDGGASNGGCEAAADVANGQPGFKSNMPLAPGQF
5-HT6, sequence (P50406 whole entry, looked up, species assumed): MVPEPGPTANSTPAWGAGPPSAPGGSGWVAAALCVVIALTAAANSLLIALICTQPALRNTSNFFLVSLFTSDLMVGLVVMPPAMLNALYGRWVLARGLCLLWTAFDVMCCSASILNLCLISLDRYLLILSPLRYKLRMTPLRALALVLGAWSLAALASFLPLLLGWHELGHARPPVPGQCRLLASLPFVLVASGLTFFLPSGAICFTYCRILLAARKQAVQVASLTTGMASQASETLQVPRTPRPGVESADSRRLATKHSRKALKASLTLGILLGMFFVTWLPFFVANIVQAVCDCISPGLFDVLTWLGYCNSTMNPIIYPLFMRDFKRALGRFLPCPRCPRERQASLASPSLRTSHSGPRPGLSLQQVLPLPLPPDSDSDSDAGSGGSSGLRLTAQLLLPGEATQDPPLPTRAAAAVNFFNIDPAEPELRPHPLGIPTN
a1A, sequence (P35348 whole entry, looked up): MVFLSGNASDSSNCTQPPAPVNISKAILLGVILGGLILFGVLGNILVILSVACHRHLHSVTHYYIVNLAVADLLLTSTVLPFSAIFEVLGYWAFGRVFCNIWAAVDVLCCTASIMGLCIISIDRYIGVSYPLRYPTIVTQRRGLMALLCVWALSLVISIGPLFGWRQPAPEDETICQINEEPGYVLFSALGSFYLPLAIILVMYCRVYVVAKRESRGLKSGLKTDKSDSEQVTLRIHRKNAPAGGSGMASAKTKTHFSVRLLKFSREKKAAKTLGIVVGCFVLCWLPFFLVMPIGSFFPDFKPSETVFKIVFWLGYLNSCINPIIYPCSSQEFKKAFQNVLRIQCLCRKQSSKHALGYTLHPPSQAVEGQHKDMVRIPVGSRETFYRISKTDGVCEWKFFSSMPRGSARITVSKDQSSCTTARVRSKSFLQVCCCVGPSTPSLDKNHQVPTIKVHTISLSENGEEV
5-HT1D, sequence (P28221 whole entry, looked up, species assumed): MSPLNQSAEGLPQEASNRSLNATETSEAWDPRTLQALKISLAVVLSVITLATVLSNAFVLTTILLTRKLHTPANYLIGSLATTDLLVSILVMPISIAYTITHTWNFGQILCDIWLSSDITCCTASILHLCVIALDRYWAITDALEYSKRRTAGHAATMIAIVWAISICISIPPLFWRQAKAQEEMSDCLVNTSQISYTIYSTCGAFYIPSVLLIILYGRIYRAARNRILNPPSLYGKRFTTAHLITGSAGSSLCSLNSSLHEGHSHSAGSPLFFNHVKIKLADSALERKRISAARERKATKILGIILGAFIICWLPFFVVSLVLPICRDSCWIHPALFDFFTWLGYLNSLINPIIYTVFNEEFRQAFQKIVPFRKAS
5-HT1e, sequence (P28566 whole entry, looked up, species assumed): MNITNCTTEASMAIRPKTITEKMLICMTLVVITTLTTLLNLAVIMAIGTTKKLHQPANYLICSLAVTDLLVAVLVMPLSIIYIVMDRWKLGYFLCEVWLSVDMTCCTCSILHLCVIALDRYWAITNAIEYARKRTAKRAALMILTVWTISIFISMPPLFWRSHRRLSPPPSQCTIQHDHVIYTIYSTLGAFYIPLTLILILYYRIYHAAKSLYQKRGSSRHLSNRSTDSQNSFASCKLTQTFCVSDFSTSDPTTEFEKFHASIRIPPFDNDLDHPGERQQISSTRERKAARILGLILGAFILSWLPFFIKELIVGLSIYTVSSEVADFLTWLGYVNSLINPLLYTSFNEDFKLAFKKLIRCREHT
5-HT7, sequence (P34969 whole entry, looked up, species assumed): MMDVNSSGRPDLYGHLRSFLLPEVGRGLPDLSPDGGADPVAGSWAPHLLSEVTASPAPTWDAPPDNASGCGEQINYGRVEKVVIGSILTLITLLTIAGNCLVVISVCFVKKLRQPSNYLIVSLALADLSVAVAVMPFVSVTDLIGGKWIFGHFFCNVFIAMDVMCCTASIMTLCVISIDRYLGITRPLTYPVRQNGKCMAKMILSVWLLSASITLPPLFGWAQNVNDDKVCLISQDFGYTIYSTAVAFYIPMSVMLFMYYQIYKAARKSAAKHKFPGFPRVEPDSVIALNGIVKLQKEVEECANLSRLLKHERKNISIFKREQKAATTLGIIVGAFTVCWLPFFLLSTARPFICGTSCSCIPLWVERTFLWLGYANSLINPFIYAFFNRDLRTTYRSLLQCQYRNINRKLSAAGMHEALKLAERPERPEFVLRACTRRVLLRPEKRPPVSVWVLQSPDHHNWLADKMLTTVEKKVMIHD

For the compound `CN[C@]1(c2ccccc2Cl)CCCCC1=O` [(S)-ketamine], the “immobility time in the forced swim test” value in [1] is reported as “reduce the immobility time”.

A word on the Ki: it is a dissociation constant, usually derived from enzyme kinetics or from competition with a known ligand. As for `COc1cc(C(F)(F)F)c(OC)cc1[C@@H]1CCCNC1.Cl` [Compound 8, (S)-3-(2,5-Dimethoxy-4-(trifluoromethyl)phenyl)piperidine hydrochloride], the “5-HT2A Rmax ± S.E.M” value at human 5-HT2A [2] came to 47 ± 3%. The EC50 at 5-HT2C [3] (read-out: 5-HT2C EC50) is greater than 50000 nM; on 5-HT2B [4] (agonist potency) it was 280 nM. Also, the “5-HT2B Rmax” value at 5-HT2B [4] (% of the Rmax of 5-HT) was 84%. Also, the “5-HT2A Rmax” value at human 5-HT2A [5] amounted to 74%. Moreover, the Ki was 330 nM on 5-HT1A; 663 nM on 5-HT1D (read-out: Ki (nM) 5-HT1D); 762 nM at 5-HT1e; 85 nM on 5-HT2B [6]; 42 nM on 5-HT2C [7]; 623 nM on 5-HT6. The Ki at 5-HT7 was 2360 nM; at a1A (read-out: Ki (nM) a1A), greater than 10000 nM; on a1B (read-out: Ki (nM) a1B), greater than 10000 nM; at a2A (read-out: Ki (nM) a2A), 1400 nM; at a2B, 820 nM; on a2C it was greater than 10000 nM.

Consider `COc1cc([C@H]2CC[C@H](c3ccccc3OC)NC2)c(OC)cc1Br` [Compound 8b, reference compound], for which the “agonist response at 5-HT2A” value at human 5-HT2A [2] and at human 5-HT2A [5] was “no agonist response” in each case. Further, the “5-HT2A agonist activity (n.a./w.a.)” value at human 5-HT2A [2] (tested up to 50 μM) is “w.a. [@ 10-50 μM]”; at human 5-HT2A [5] (up to 100 μM (Table 4)), “n.a. (no agonist activity: the compound did not evoke significant responses at concentrations up to 100 μM)”. In addition, the “5-HT2C agonist activity (n.a./w.a.)” value was “w.a. [@ 10-50 μM]” at 5-HT2C [3] (tested up to 50 μM) and “w.a” on 5-HT2C [9] (up to 100 μM (Table 4)). The EC50 at human 5-HT2A [5], on 5-HT2B [8] and on 5-HT2C [9] was greater than 100000 nM each time. Besides, at 5-HT2B [8] (up to 100 μM (Table 4)), the “5-HT2B agonist activity (n.a./w.a.)” value is listed as “n.a. (no agonist activity: the compound did not evoke significant responses at concentrations up to 100 μM)”. The “5-HT2A-over-5-HT2C selectivity in terms of binding affinity” value with 5-HT2A over 5-HT2C is listed as 27 fold.

`COc1cc(C2CC[C@@H](c3ccccc3OC)NC2)c(OC)cc1Br` (some centres unmarked) [Compound 8a, reference compound]: the “5-HT2A Rmax ± S.E.M” value on human 5-HT2A [2] is on record as 87 ± 4%. Also, the “agonist response at 5-HT2A” value on human 5-HT2A [2] and on human 5-HT2A [5] was “evoked significant agonist responses” each time. The “Selectivity EC50 5-HT2C/EC50 5-HT2A” value is 4.1 on human 5-HT2A [2]; “only slight selectivity towards 5-HT2A over 5-HT2C” at human 5-HT2A [2] (listed as compound 8a); 0.07 at 5-HT2C [9]; “selectivity towards 5-HT2C and 5-HT2B over 5-HT2A” at 5-HT2C [9] (listed as compound 8a). Besides, the EC50 at human 5-HT2A [2] (agonist potency, n = 3-4, read-out: 5-HT2A EC50) is 480 nM; on 5-HT2C [3] (read-out: 5-HT2C EC50) it was 2000 nM; on 5-HT2C [3] (read-out: 5-HT2C [pEC50 ± S.E.M.] (converted)), 1950 nM; on human 5-HT2A [5] it was 2300 nM; on 5-HT2B [8], 770 nM; at 5-HT2C [9] it was 170 nM. Moreover, the “5-HT2C Rmax ± S.E.M” value on 5-HT2C [3] (% of the Rmax of 5-HT) turned out to be 82 ± 3%. In addition, the “5-HT2A Rmax” value at human 5-HT2A [5] was determined as 94%. Besides, the “5-HT2B Rmax” value at 5-HT2B [8] (% of Rmax of 5-HT) came out at 20%. Moreover, the “5-HT2C Rmax (%)” value on 5-HT2C [9] (% of Rmax of 5-HT) was 80%. The “5-HT2A-over-5-HT2C selectivity in terms of binding affinity” value with 5-HT2A over 5-HT2C is reported as 13 fold.

For `CN(C)CCc1c[nH]c2cccc(O)c12` [Psilocin, psilocin], the Ki at 5-HT1A came out at 63 nM; at 5-HT1B it was 305 nM; on 5-HT1D it was 19 nM; at 5-HT1e, 44 nM; on 5-HT5A it was 70 nM; at 5-HT6 it was 72 nM. For the same compound, the Ki at 5-HT7 is 72 nM; at D1, 20 nM; on D2, greater than 10000 nM; on D3, 100 nM; on D4 it was greater than 10000 nM; at D5, greater than 10000 nM. Besides, the Ki is greater than 10000 nM at a1A, greater than 10000 nM on a1B, 2000 nM at a2A and 4400 nM on a2C. The EC50 in the test with 5-HT2A (EC50 ± S.D.) is […]; with 5-HT2C [10] (EC50 ± S.D.), 30 ± 18 nM. Besides, the “Rmax (%) 5-HT2A” value in the test on 5-HT2A (setting [12]) was […]. Besides, the “Rmax (%) 5-HT2C” value in the test on 5-HT2C [10] (setting [12]) is given as 51 ± 37%. Moreover, at 5-HT2B [11], the “Rmax (%) 5-HT2B” value is listed as 45%.

The record behind these values is US11642336B2, “5-HT2A agonists for use in treatment of depression” (priority 2019, dated 2023).
